Laboratory results as given in ChEMBL document CHEMBL1201862, “PubChem BioAssay data set” (2004).
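Compound exposure: 48 hours, 5 concentrations, 96-well plates. Abbreviation: GI50, concentration required for 50% inhibition of growth.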 The source made the active and inactive calls. Cut-off read from the data, not from the text of the source: active = GI50 up to about 1.1 µM and inactive = higher.

Assays:
Assay in all cases: NCI-60 cell line screen, 48 h
[1] = test system: BT-549
[2] = test system: XF498
[3] = test system: HOP-18
[4] = test system: KM-20L2
[5] = test system: LXFL 529
[6] = test system: DMS-114
[7] = test system: SNB-78
[8] = test system: M19-MEL
[9] = test system: RXF 631

| Structure (SMILES) | GI50 [1] | GI50 [2] | GI50 [3] | GI50 [4] | GI50 [5] | GI50 [6] | GI50 [7] | GI50 [8] | GI50 [9] |
| --- | --- | --- | --- | --- | --- | --- | --- | --- | --- |
| CCOC(=O)CCC(NC(=O)OCc1ccccc1)C(=O)NC(CCC(=O)OCC)C(=O)NNC(=O)OC(C)(C)C (stereo not drawn) | > 100 µM (inactive) | – | – | – | – | – | – | – | – |
| Cc1ccc(C)c(C(=O)CC2OC(O)C(Cl)C2Cl)c1 (stereo not drawn) | – | > 100 µM (inactive) | > 100 µM (inactive) | > 100 µM (inactive) | 17.4 µM (inactive) | > 100 µM (inactive) | 60.1 µM (inactive) | 72.3 µM (inactive) | – |
| COc1cccc(-c2nnc3c(-c4ccccc4)nc4ccccc4n23)c1 | 35.9 µM (inactive) | – | – | – | – | – | – | – | – |
| COc1ccc2c(c1O)-c1cc(O)cc3c1[C@@H](C2)N(C)CC3 | – | 93.8 µM (inactive) | 67.3 µM (inactive) | 2.84 µM (inactive) | – | – | 83 µM (inactive) | 67.8 µM (inactive) | – |
| c1ccc2c(c1)OCCc1cn[nH]c1-2 | – | 52.2 µM (inactive) | > 43.5 µM (inactive) | > 100 µM (inactive) | – | 99.1 µM (inactive) | > 100 µM (inactive) | – | – |
| Cn1c(=O)[nH]c2nncnc2c1=O | – | 54.2 µM (inactive) | 13.5 µM (inactive) | 55.2 µM (inactive) | – | 126 µM (inactive) | 151 µM (inactive) | 43.7 µM (inactive) | – |
| Cc1cccc2c(N)c3cccc(C(=O)NCCN(C)C)c3nc12 | 1.41 µM (inactive) | – | – | – | – | – | – | – | – |
| CNC(=O)SCC(N)C(=O)O (stereo not drawn) | – | 84.9 µM (inactive) | > 78.2 µM (inactive) | > 100 µM (inactive) | – | 35.3 µM (inactive) | > 100 µM (inactive) | – | – |
| CCOC(=O)CSc1nc(N)c2c(-c3ccc(OC)c(OC)c3)c3c(nc2n1)CCCC3 | 61.9 µM (inactive) | – | – | – | – | – | – | – | – |
| Cc1cccc2nc3cccc(C(=O)NCCN(C)C)c3nc12 | – | – | 2.4 µM (inactive) | – | – | 1.06 µM (active) | 0.802 µM (active) | 0.675 µM (active) | – |
| NC(CCP(=O)(O)CCC1C=CC=CC1)C(=O)O (stereo not drawn) | > 100 µM (inactive) | – | – | – | – | – | – | – | – |
| N=C(CSS(=O)(=O)O)NC1CC2CCC1C2 (stereo not drawn) | > 100 µM (inactive) | – | – | – | – | – | – | – | – |
| COc1cc(-c2cc(=O)c3c(O)c(CC=C(C)C)c(O)cc3o2)ccc1O | 21.6 µM (inactive) | – | – | – | – | – | – | – | – |
| CC(=O)c1c(P(=O)(OC(C)C)OC(C)C)nn(-c2ccc([N+](=O)[O-])cc2)c1C | – | > 100 µM (inactive) | – | > 100 µM (inactive) | > 100 µM (inactive) | > 100 µM (inactive) | > 100 µM (inactive) | > 100 µM (inactive) | – |
| O=C1c2cccc3cc4ccccc4c(c23)C(=O)N1CCNCCNCCNCCN1C(=O)c2cccc3cc4ccccc4c(c23)C1=O | – | 0.0131 µM (active) | 0.0405 µM (active) | < 0.0139 µM (active) | – | 0.0114 µM (active) | < 0.01 µM (active) | < 0.01 µM (active) | – |
| NC1=NS(=O)(=O)Nc2[nH]c(-c3ccccc3)nc21 | – | > 100 µM (inactive) | > 100 µM (inactive) | > 100 µM (inactive) | > 100 µM (inactive) | > 100 µM (inactive) | > 100 µM (inactive) | > 100 µM (inactive) | – |
| O=C1C=C(Nc2ccc(Br)cc2)c2ccccc2C1=O | – | – | – | 23 µM (inactive) | 12.5 µM (inactive) | 4.65 µM (inactive) | – | 1.73 µM (inactive) | – |
| O=C(c1ccccc1)c1ccc2n[se]nc2c1 | – | – | < 0.01 µM (active) | 31.4 µM (inactive) | 69.8 µM (inactive) | 12.4 µM (inactive) | > 100 µM (inactive) | – | 18.8 µM (inactive) |
| N/N=C1\C(OC(=O)Nc2cccc(Cl)c2)=Nc2ccccc21 | 7.96 µM (inactive) | – | – | – | – | – | – | – | – |
| C[N+](C)(C)CC1CCCC(C[N+](C)(C)C)C1=O (stereo not drawn) | 1.58 µM (inactive) | 0.411 µM (active) | 0.494 µM (active) | 0.855 µM (active) | 0.177 µM (active) | 1.77 µM (inactive) | 2.39 µM (inactive) | 0.879 µM (active) | 1.96 µM (inactive) |
